Measured values taken from patent publication US20230002359A1, “PESTICIDALLY ACTIVE FUSED BICYCLIC HETEROAROMATIC COMPOUNDS” (priority 2019, published 2023).

What was measured:
Type in all cases: in vivo
[1] = test system: Myzus persicae (Green Peach Aphid); test: Example B5: Myzus persicae (green peach aphid) feeding/contact activity, sunflower leaf discs; conditions: foliar, 144 h, application rate of 200 ppm, 6 days after infestation
Method: Sunflower leaf discs were placed onto agar in a 24-well microtiter plate and sprayed with aqueous test solutions prepared from 10′000 ppm DMSO stock solutions. After drying, the leaf discs were infested with an aphid population of mixed ages. The samples were assessed for mortality 6 days after infestation.

[2] = test system: Plutella xylostella (Diamond Back Moth); test: Example B4: Plutella xylostella (diamond back moth), artificial diet, eggs, 24-well; conditions: 192 h, application rate of 200 ppm, 8 days after infestation, eggs, read-out: control in at least one of the two categories (mortality or growth inhibition)
Method: 24-well microtiter plates with artificial diet were treated with aqueous test solutions prepared from 10′000 ppm DMSO stock solutions by pipetting. After drying, Plutella eggs were pipetted through a plastic stencil onto a gel blotting paper and the plate was closed with it. The samples were assessed for mortality and growth inhibition in comparison to untreated samples 8 days after infestation.

[3] = test system: Euschistus heros (Neotropical Brown Stink Bug); test: Example B2: Euschistus heros (neotropical brown stink bug), soybean leaves sprayed, N2 nymphs; conditions: 120 h, application rate of 200 ppm, 5 days after infestation, N2 nymphs, read-out: control in at least one of the two categories (mortality or growth inhibition)
Method: Soybean leaves on agar in 24-well microtiter plates were sprayed with aqueous test solutions prepared from 10′000 ppm DMSO stock solutions. After drying the leaves were infested with N2 nymphs. The samples were assessed for mortality and growth inhibition in comparison to untreated samples 5 days after infestation.

[4] = test system: Chilo suppressalis (Striped Rice Stemborer); test: Example B3: Chilo suppressalis (striped rice stemborer), artificial diet, L2 larvae; conditions: 144 h, application rate of 200 ppm, 6 days after infestation, L2 larvae, read-out: control in at least one of the three categories (mortality, anti-feedant effect, or growth inhibition)
In short: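 First, artificial diet was treated with aqueous solutions prepared from 10'000 ppm DMSO stocks; second, after drying, L2 larvae (6-8/well) were added; third, effects were assessed at 6 days against untreated controls, counting control when any of three categories was higher.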

[5] = test system: Myzus persicae (Green Peach Aphid); test: Example B6: Myzus persicae (green peach aphid) intrinsic activity, sucrose solution; conditions: 120 h, test rate of 12 ppm, 5 days after infestation, intrinsic activity, read-out: mortality
In short: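 Mortality was read 5 days after infestation. Aphids on pea seedlings fed through a stretched Parafilm membrane on inverted 24-well plates containing sucrose solution mixed with test compound, which was diluted from 10′000 ppm DMSO stock.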

[6] = test system: Diabrotica Balteata (Corn Root Worm); test: Example B1: Diabrotica balteata (corn root worm), maize sprouts sprayed, L2 larvae; conditions: 96 h, application rate of 200 ppm, 4 days after infestation, L2 larvae, read-out: control in at least one of the two categories (mortality or growth inhibition)
In short: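 Larvae at L2 stage, 6 to 10 per well, feed on dried, spray-treated maize sprouts set on agar. Evaluation after 4 days compares mortality and growth inhibition with untreated samples.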

[7] = test system: Spodoptera littoralis (Egyptian Cotton Leaf Worm); test: Example B7: Spodoptera littoralis (Egyptian cotton leaf worm), cotton leaf discs sprayed, L1 larvae; conditions: foliar, 72 h, application rate of 200 ppm, 3 days after infestation, L1 larvae, read-out: control in at least one of the three categories (mortality, anti-feedant effect, or growth inhibition)
In short: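 Cotton leaf discs on agar were sprayed with aqueous test solutions made from 10′000 ppm DMSO stocks, dried, then infested with five L1 larvae. Mortality, anti-feeding effect and growth inhibition were scored against untreated discs 3 days after infestation; control means any category exceeds untreated.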

CC(c1ncnn1-c1ncccn1)N(C)c1ncnc2c(Cl)c(F)c(Cl)cc12 (centres unmarked) [P.165, 6,8-dichloro-7-fluoro-N-methyl-N-[1-(2-pyrimidin-2-yl-1,2,4-triazol-3-yl)ethyl]quinazolin-4-amine]
≥ 80%: mortality at 200 ppm [1]

C[C@@H](c1ncnn1-c1ncccn1)N(C)c1ncnc2c(OC(F)F)cc(Cl)cc12 [P.90, 6-chloro-8-(difluoromethoxy)-N-methyl-N-[(1S)-1-(2-pyrimidin-2-yl-1,2,4-triazol-3-yl)ethyl]quinazolin-4-amine]
≥ 80%: percent control (mortality or growth inhibition) at 200 ppm [2] | percent control (mortality or growth inhibition) at 200 ppm [3] | percent control (mortality, anti-feedant effect or growth inhibition) at 200 ppm [4] | mortality at 12 ppm [5] | percent control (mortality or growth inhibition) at 200 ppm [6] | mortality at 200 ppm [1]

C[C@@H](c1ncnn1-c1ccc(C#N)cn1)N(C)c1ncnc2c(C(=O)C3CC3)cc(C(F)(F)F)cc12 [P.227, 6-[5-[(1S)-1-[[8-(cyclopropanecarbonyl)-6-(trifluoromethyl)quinazolin-4-yl]-methyl-amino]ethyl]-1,2,4-triazol-1-yl]pyridine-3-carbonitrile]
≥ 80%: percent control (mortality or growth inhibition) at 200 ppm [2] | percent control (mortality or growth inhibition) at 200 ppm [3] | percent control (mortality, anti-feedant effect or growth inhibition) at 200 ppm [4] | percent control (mortality, anti-feedant effect or growth inhibition) at 200 ppm [7] | mortality at 12 ppm [5] | percent control (mortality or growth inhibition) at 200 ppm [6] | mortality at 200 ppm [1]

CC(c1ncnn1-c1ncccn1)N(C)c1ncnc2c(Br)cc(Br)cc12 (centres unmarked) [P.258, 6,8-dibromo-N-methyl-N-[1-(2-pyrimidin-2-yl-1,2,4-triazol-3-yl)ethyl]quinazolin-4-amine]
≥ 80%: percent control (mortality or growth inhibition) at 200 ppm [2] | percent control (mortality, anti-feedant effect or growth inhibition) at 200 ppm [4] | percent control (mortality, anti-feedant effect or growth inhibition) at 200 ppm [7] | mortality at 12 ppm [5] | percent control (mortality or growth inhibition) at 200 ppm [6] | mortality at 200 ppm [1]

CC(c1ncnn1-c1ncccn1)N(C)c1ncnc2c(C(F)(F)F)cc(Br)cc12 (centres unmarked) [P.127, 6-bromo-N-methyl-N-[1-(2-pyrimidin-2-yl-1,2,4-triazol-3-yl)ethyl]-8-(trifluoromethyl)quinazolin-4-amine]
≥ 80%: percent control (mortality or growth inhibition) at 200 ppm [2] | percent control (mortality, anti-feedant effect or growth inhibition) at 200 ppm [4] | percent control (mortality, anti-feedant effect or growth inhibition) at 200 ppm [7] | mortality at 12 ppm [5] | percent control (mortality or growth inhibition) at 200 ppm [6] | mortality at 200 ppm [1]

CC(c1ncnn1-c1ccc(F)cn1)N(C)c1ncnc2c(C(F)(F)F)cc(Br)cc12 (centres unmarked) [P.188, 6-bromo-N-[1-[2-(5-fluoro-2-pyridyl)-1,2,4-triazol-3-yl]ethyl]-N-methyl-8-(trifluoromethyl)quinazolin-4-amine]
≥ 80%: percent control (mortality or growth inhibition) at 200 ppm [2] | percent control (mortality or growth inhibition) at 200 ppm [3] | percent control (mortality, anti-feedant effect or growth inhibition) at 200 ppm [4] | mortality at 12 ppm [5] | percent control (mortality or growth inhibition) at 200 ppm [6] | mortality at 200 ppm [1]

C[C@H](Nc1ncnc2c(C(F)(F)F)cc(Cl)cc12)c1ncnn1-c1ncccn1 [P.24, 6-chloro-N-[(1S)-1-(2-pyrimidin-2-yl-1,2,4-triazol-3-yl)ethyl]-8-(trifluoromethyl)quinazolin-4-amine]
≥ 80%: percent control (mortality or growth inhibition) at 200 ppm [2] | percent control (mortality, anti-feedant effect or growth inhibition) at 200 ppm [4] | percent control (mortality, anti-feedant effect or growth inhibition) at 200 ppm [7] | mortality at 12 ppm [5] | percent control (mortality or growth inhibition) at 200 ppm [6] | mortality at 200 ppm [1]

C[C@@H](c1ncnn1-c1ccc(C(N)=S)cn1)N(C)c1ncnc2c(C(F)(F)F)cc(C(F)(F)F)cc12 [P.190, 6-[5-[(1S)-1-[[6,8-bis(trifluoromethyl)quinazolin-4-yl]-methyl-amino]ethyl]-1,2,4-triazol-1-yl]pyridine-3-carbothioamide]
≥ 80%: percent control (mortality or growth inhibition) at 200 ppm [2] | percent control (mortality or growth inhibition) at 200 ppm [3] | percent control (mortality, anti-feedant effect or growth inhibition) at 200 ppm [4] | mortality at 12 ppm [5] | percent control (mortality or growth inhibition) at 200 ppm [6] | mortality at 200 ppm [1]

C[C@@H](c1ncnn1-c1ccc(C#N)cn1)N(C)c1ncnc2c(C(F)(F)F)cc(I)cc12 [P.184, 6-[5-[(1S)-1-[[6-iodo-8-(trifluoromethyl)quinazolin-4-yl]-methyl-amino]ethyl]-1,2,4-triazol-1-yl]pyridine-3-carbonitrile]
≥ 80%: percent control (mortality or growth inhibition) at 200 ppm [2] | percent control (mortality, anti-feedant effect or growth inhibition) at 200 ppm [4] | mortality at 12 ppm [5] | percent control (mortality or growth inhibition) at 200 ppm [6] | mortality at 200 ppm [1]

CC(c1ncnn1-c1ccc(C#N)cn1)N(C)c1ncnc2c(Br)cc(OC(F)(F)F)cc12 (centres unmarked) [P.217, 6-[5-[1-[[8-bromo-6-(trifluoromethoxy)quinazo-lin-4-yl]-methyl-amino]ethyl]-1,2,4-triazol-1-yl]pyridine-3-carbonitrile]
≥ 80%: percent control (mortality or growth inhibition) at 200 ppm [2] | percent control (mortality, anti-feedant effect or growth inhibition) at 200 ppm [4] | percent control (mortality, anti-feedant effect or growth inhibition) at 200 ppm [7] | mortality at 12 ppm [5] | percent control (mortality or growth inhibition) at 200 ppm [6] | mortality at 200 ppm [1]

CC(c1ncnn1-c1ccc(F)cn1)N(C)c1ncnc2c(C(F)(F)F)cc(Cl)cc12 (centres unmarked) [P.187, 6-chloro-N-[1-[2-(5-fluoro-2-pyridyl)-1,2,4-triazol-3-yl]ethyl]-N-methyl-8-(trifluoromethyl)quinazolin-4-amine]
≥ 80%: percent control (mortality or growth inhibition) at 200 ppm [2] | percent control (mortality or growth inhibition) at 200 ppm [3] | percent control (mortality, anti-feedant effect or growth inhibition) at 200 ppm [4] | mortality at 12 ppm [5] | percent control (mortality or growth inhibition) at 200 ppm [6] | mortality at 200 ppm [1]

CC(c1ncnn1-c1ccc(OC(F)F)cn1)N(C)c1ncnc2c(C(F)(F)F)cc(Cl)cc12 (centres unmarked) [P.236, 6-chloro-N-[1-[2-[5-(difluoromethoxy)-2-pyridyl]-1,2,4-triazol-3-yl]ethyl]-N-methyl-8-(trifluoromethyl)quinazolin-4-amine]
≥ 80%: percent control (mortality or growth inhibition) at 200 ppm [2] | percent control (mortality, anti-feedant effect or growth inhibition) at 200 ppm [4] | percent control (mortality, anti-feedant effect or growth inhibition) at 200 ppm [7] | mortality at 12 ppm [5] | percent control (mortality or growth inhibition) at 200 ppm [6] | mortality at 200 ppm [1]

C[C@H](Nc1ncnc2c(I)cc(C(F)(F)F)cc12)c1ncnn1-c1ccc(C#N)cn1 [P.263, 6-[5-[(1S)-1-[[8-iodo-6-(trifluoromethyl)quinazolin-4-yl]amino]ethyl]-1,2,4-triazol-1-yl]pyridine-3-carbonitrile]
≥ 80%: percent control (mortality or growth inhibition) at 200 ppm [2] | percent control (mortality or growth inhibition) at 200 ppm [3] | percent control (mortality, anti-feedant effect or growth inhibition) at 200 ppm [4] | percent control (mortality, anti-feedant effect or growth inhibition) at 200 ppm [7] | mortality at 12 ppm [5] | percent control (mortality or growth inhibition) at 200 ppm [6]

CC(Nc1nc(C(F)(F)F)nc2c(C(F)(F)F)cc(C(F)(F)F)cc12)c1ncnn1-c1ccc(C#N)cn1 (centres unmarked) [P.59, 6-[5-[1-[[2,6,8-tris(trifluoromethyl)quina-zolin-4-yl]amino]ethyl]-1,2,4-triazol-1-yl]pyridine-3-carbonitrile]
≥ 80%: mortality at 200 ppm [1]

CC(Nc1ncnc2c(C(F)(F)F)cc(C(F)(F)F)cc12)c1ncnn1-c1ncccn1 (centres unmarked) [P.16, N-[1-(2-pyrimidin-2-yl-1,2,4-triazol-3-yl)ethyl]-6,8-bis(trifluoromethyl)quinazolin-4-amine]
≥ 80%: percent control (mortality or growth inhibition) at 200 ppm [2] | percent control (mortality or growth inhibition) at 200 ppm [3] | percent control (mortality, anti-feedant effect or growth inhibition) at 200 ppm [4] | percent control (mortality, anti-feedant effect or growth inhibition) at 200 ppm [7] | mortality at 12 ppm [5] | percent control (mortality or growth inhibition) at 200 ppm [6]

C[C@@H](c1ncnn1-c1ccc(C(N)=S)cn1)N(C)c1ncnc2c(C(F)(F)F)cc(Cl)cc12 [P.191, 6-[5-[(1S)-1-[[6-chloro-8-(trifluoromethyl)quinazolin-4-yl]-methyl-amino]ethyl]-1,2,4-triazol-1-yl]pyridine-3-carbothioamide]
≥ 80%: percent control (mortality or growth inhibition) at 200 ppm [2] | percent control (mortality or growth inhibition) at 200 ppm [3] | percent control (mortality, anti-feedant effect or growth inhibition) at 200 ppm [4] | mortality at 12 ppm [5] | percent control (mortality or growth inhibition) at 200 ppm [6] | mortality at 200 ppm [1]
